Converted amounts (≈) assume the structure as drawn.
Tests used:
[1] = test system: Streptococcus pneumoniae; assay: Antibacterial activity against Streptococcus pneumoniae U2A1686 harboring gyrA Glu85Lys mutant gene by agar disk diffusion method; type: functional
[2] = test system: Streptococcus pneumoniae; assay: Antibacterial activity against Streptococcus pneumoniae U2A1050 harboring gyrA Ser81Phe mutant gene by agar dilution method; type: functional
[3] = test system: Streptococcus pneumoniae; assay: Antibacterial activity against Streptococcus pneumoniae U2A1681 harboring parC Ser79Tyr Asp83Ala mutant gene by agar dilution method; type: functional
[4] = test system: Streptococcus pneumoniae; assay: Antibacterial activity against Streptococcus pneumoniae U2A1053 harboring parC Ser79Phe mutant gene by agar dilution method; type: functional
[5] = test system: Streptococcus pneumoniae; assay: Antibacterial activity against Streptococcus pneumoniae U2A1413 harboring parC Ser79Tyr mutant gene by agar disk diffusion method; type: functional
[6] = test system: Streptococcus pneumoniae; assay: Antibacterial activity against Streptococcus pneumoniae CIP104485 by agar dilution method; type: functional; conditions: CIP1044
[7] = test system: Streptococcus pneumoniae; assay: Antibacterial activity against Streptococcus pneumoniae U2A1414 harboring gyrA Glu85Lys parC Ser79Phe mutant gene by agar disk diffusion method; type: functional
[8] = test system: Streptococcus pneumoniae; assay: Antibacterial activity against Streptococcus pneumoniae R6 Tr6 harboring gyrA Ser81Phe mutant gene by agar disk diffusion method; type: functional
[9] = test system: Streptococcus pneumoniae; assay: Antibacterial activity against Streptococcus pneumoniae R6 Tr6 harboring gyrA Ser81Phe mutant gene by agar dilution method; type: functional
[10] = test system: Streptococcus pneumoniae; assay: Antibacterial activity against Streptococcus pneumoniae U2A1686 harboring gyrA Glu85Lys mutant gene by agar dilution method; type: functional
[11] = test system: Streptococcus pneumoniae; assay: Antibacterial activity against Streptococcus pneumoniae U2A1414 harboring gyrA Glu85Lys parC Ser79Phe mutant gene by agar dilution method; type: functional
[12] = test system: Streptococcus pneumoniae; assay: Antibacterial activity against Streptococcus pneumoniae U2A1266 harboring gyrA Ser81Cys mutant gene by agar dilution method; type: functional
[13] = test system: Streptococcus pneumoniae; assay: Antibacterial activity against Streptococcus pneumoniae U2A1050 harboring gyrA Ser81Phe mutant gene by agar disk diffusion method; type: functional
[14] = test system: Streptococcus pneumoniae; assay: Antibacterial activity against Streptococcus pneumoniae R6 Tr10 harboring gyrA Ser81Tyr parC Ser79Tyr mutant gene by agar dilution method; type: functional
[15] = test system: Streptococcus pneumoniae; assay: Antibacterial activity against Streptococcus pneumoniae U2A1411 harboring parC Asp83Gly mutant gene by agar dilution method; type: functional
[16] = test system: Streptococcus pneumoniae; assay: Antibacterial activity against Streptococcus pneumoniae CP1000 by agar dilution method; type: functional
[17] = test system: Streptococcus pneumoniae; assay: Antibacterial activity against Streptococcus pneumoniae R6 Tr1 harboring parC Ser79Tyr mutant gene by agar dilution method; type: functional
[18] = test system: Streptococcus pneumoniae; assay: Antibacterial activity against Streptococcus pneumoniae U2A1266 harboring gyrA Ser81Cys mutant gene by agar disk diffusion method; type: functional
[19] = test system: Streptococcus pneumoniae; assay: Antibacterial activity against Streptococcus pneumoniae R6 Tr1 harboring parC Ser79Tyr mutant gene by agar disk diffusion method; type: functional
[20] = test system: Streptococcus pneumoniae; assay: Antibacterial activity against Streptococcus pneumoniae CIP104485 by agar disk diffusion method; type: functional, CIP1044
[21] = test system: Streptococcus pneumoniae; assay: Antibacterial activity against Streptococcus pneumoniae U2A1060 harboring gyrA Ser81Phe parC Asp83His mutant gene by agar disk diffusion method; type: functional
[22] = test system: Streptococcus pneumoniae; assay: Antibacterial activity against Streptococcus pneumoniae R6 by agar disk diffusion method; type: functional
[23] = test system: Streptococcus pneumoniae; assay: Antibacterial activity against Streptococcus pneumoniae U2A1681 harboring parC Ser79Tyr Asp83Ala mutant gene by agar disk diffusion method; type: functional
[24] = test system: Streptococcus pneumoniae; assay: Antibacterial activity against Streptococcus pneumoniae CP1000 by agar disk diffusion method; type: functional
[25] = test system: Streptococcus pneumoniae; assay: Antibacterial activity against Streptococcus pneumoniae U2A1413 harboring parC Ser79Tyr mutant gene by agar dilution method; type: functional
[26] = test system: Streptococcus pneumoniae; assay: Antibacterial activity against Streptococcus pneumoniae U2A1051 harboring gyrA Ser81Tyr mutant gene by agar dilution method; type: functional
[27] = test system: Streptococcus pneumoniae; assay: Antibacterial activity against Streptococcus pneumoniae R6 Tr10 harboring gyrA Ser81Tyr parC Ser79Tyr mutant gene by agar disk diffusion method; type: functional
[28] = test system: Streptococcus pneumoniae; assay: Antibacterial activity against Streptococcus pneumoniae U2A1053 harboring parC Ser79Phe mutant gene by agar disk diffusion method; type: functional
[29] = test system: Streptococcus pneumoniae; assay: Antibacterial activity against Streptococcus pneumoniae U2A1056 harboring gyrA Ser81Tyr parC Asp83His mutant gene by agar dilution method; type: functional
[30] = test system: Streptococcus pneumoniae; assay: Antibacterial activity against Streptococcus pneumoniae R6 by agar dilution method; type: functional
[31] = test system: Streptococcus pneumoniae; assay: Antibacterial activity against Streptococcus pneumoniae U2A1060 harboring gyrA Ser81Phe parC Asp83His mutant gene by agar dilution method; type: functional
[32] = test system: Streptococcus pneumoniae; assay: Antibacterial activity against Streptococcus pneumoniae U2A1411 harboring parC Asp83Gly mutant gene by agar disk diffusion method; type: functional
[33] = test system: Streptococcus pneumoniae; assay: Antibacterial activity against Streptococcus pneumoniae U2A1051 harboring gyrA Ser81Tyr mutant gene by agar disk diffusion method; type: functional
[34] = test system: Streptococcus pneumoniae; assay: Antibacterial activity against Streptococcus pneumoniae U2A1056 harboring gyrA Ser81Tyr parC Asp83His mutant gene by agar disk diffusion method; type: functional
[35] = test system: Streptococcus pneumoniae; assay: Antibacterial activity against Streptococcus pneumoniae U2A1693 harboring parC Asp83Asn mutant gene by agar disk diffusion method; type: functional
[36] = test system: Streptococcus pneumoniae; assay: Antibacterial activity against Streptococcus pneumoniae U2A1693 harboring parC Asp83Asn mutant gene by agar dilution method; type: functional
[37] = test system: Streptococcus pneumoniae; assay: Antibacterial activity against Streptococcus pneumoniae H548 clinical isolate harboring gyrA Ser81Phe mutant gene by agar disk diffusion method; type: functional

SMILES	diameter of the inhibition zone (DIZ) [1] [mm]	MIC [2] [µg/mL]	MIC [3] [µg/mL]	MIC [4] [µg/mL]	diameter of the inhibition zone (DIZ) [5] [mm]	diameter of the inhibition zone (DIZ) [7] [mm]	diameter of the inhibition zone (DIZ) [8] [mm]	MIC [11] [µg/mL]	diameter of the inhibition zone (DIZ) [13] [mm]	diameter of the inhibition zone (DIZ) [18] [mm]	diameter of the inhibition zone (DIZ) [19] [mm]	diameter of the inhibition zone (DIZ) [20] [mm]	diameter of the inhibition zone (DIZ) [21] [mm]	diameter of the inhibition zone (DIZ) [22] [mm]	diameter of the inhibition zone (DIZ) [23] [mm]	diameter of the inhibition zone (DIZ) [24] [mm]	diameter of the inhibition zone (DIZ) [27] [mm]	diameter of the inhibition zone (DIZ) [28] [mm]	diameter of the inhibition zone (DIZ) [32] [mm]	diameter of the inhibition zone (DIZ) [33] [mm]	other results
O=C(O)c1cn(C2CC2)c2cc(N3CCNCC3)c(F)cc2c1=O [CIPROFLOXACIN]	25	2 (≈ 6.04 µM)	> 32	4 (≈ 12.1 µM)	24	6	21	> 32	23	23	19	25	6	21	6	23	6	19	10	22	MIC [6]: 1 µg/mL (≈ 3.02 µM); MIC [9]: 1 µg/mL (≈ 3.02 µM); MIC [10]: 1 µg/mL (≈ 3.02 µM); MIC [12]: 2 µg/mL (≈ 6.04 µM); MIC [14]: > 32 µg/mL; MIC [15]: > 32 µg/mL; MIC [16]: 1 µg/mL (≈ 3.02 µM); MIC [17]: 2 µg/mL (≈ 6.04 µM); MIC [25]: 2 µg/mL (≈ 6.04 µM); MIC [26]: 2 µg/mL (≈ 6.04 µM); MIC [29]: 32 µg/mL (≈ 96.6 µM); MIC [30]: 1 µg/mL (≈ 3.02 µM); MIC [31]: > 32 µg/mL; diameter of the inhibition zone (DIZ) [34]: 6 mm
COc1c(N2C[C@@H]3CCCN[C@@H]3C2)c(F)cc2c(=O)c(C(=O)O)cn(C3CC3)c12 [MOXIFLOXACIN]	27	1 (≈ 2.49 µM)	8 (≈ 19.9 µM)	0.25 (≈ 0.623 µM)	31	17	24	8 (≈ 19.9 µM)	25	26	28	26	18	26	12	28	18	26	25	25	MIC [6]: 0.125 µg/mL (≈ 0.311 µM); diameter of the inhibition zone (DIZ) [35]: 27 mm; MIC [9]: 0.5 µg/mL (≈ 1.25 µM); MIC [36]: 0.5 µg/mL (≈ 1.25 µM); MIC [10]: 0.5 µg/mL (≈ 1.25 µM); MIC [12]: 0.5 µg/mL (≈ 1.25 µM); MIC [15]: 0.5 µg/mL (≈ 1.25 µM); MIC [16]: 0.25 µg/mL (≈ 0.623 µM); MIC [17]: 0.5 µg/mL (≈ 1.25 µM); MIC [25]: 0.25 µg/mL (≈ 0.623 µM); MIC [26]: 1 µg/mL (≈ 2.49 µM); MIC [29]: 2 µg/mL (≈ 4.98 µM); MIC [30]: 0.125 µg/mL (≈ 0.311 µM)
CCn1cc(C(=O)O)c(=O)c2ccc(C)nc21 [NALIDIXIC ACID]	6	–	–	–	6	6	6	–	6	6	6	6	14	6	6	6	6	13	6	8	diameter of the inhibition zone (DIZ) [35]: 6 mm; diameter of the inhibition zone (DIZ) [37]: 6 mm; diameter of the inhibition zone (DIZ) [34]: 6 mm
C[C@@H]1CN(c2c(F)c(N)c3c(=O)c(C(=O)O)cn(C4CC4)c3c2F)C[C@H](C)N1 [SPARFLOXACIN]	24	2 (≈ 5.1 µM)	32 (≈ 81.5 µM)	0.25 (≈ 0.637 µM)	28	6	23	> 32	22	23	25	24	11	23	6	26	12	25	19	22	MIC [6]: 0.25 µg/mL (≈ 0.637 µM); diameter of the inhibition zone (DIZ) [35]: 24 mm; MIC [9]: 1 µg/mL (≈ 2.55 µM); MIC [10]: 2 µg/mL (≈ 5.1 µM); MIC [12]: 1 µg/mL (≈ 2.55 µM); diameter of the inhibition zone (DIZ) [37]: 20 mm; MIC [14]: 16 µg/mL (≈ 40.8 µM); MIC [16]: 0.25 µg/mL (≈ 0.637 µM); MIC [17]: 1 µg/mL (≈ 2.55 µM); MIC [25]: 0.25 µg/mL (≈ 0.637 µM); MIC [26]: 2 µg/mL (≈ 5.1 µM); MIC [29]: 8 µg/mL (≈ 20.4 µM); MIC [30]: 0.25 µg/mL (≈ 0.637 µM); MIC [31]: 16 µg/mL (≈ 40.8 µM); diameter of the inhibition zone (DIZ) [34]: 11 mm
CCn1cc(C(=O)O)c(=O)c2cc(F)c(N3CCN(C)CC3)cc21 [PEFLOXACIN]	23	16 (≈ 48 µM)	> 128	128 (≈ 384 µM)	13	–	19	> 128	18	17	–	18	–	17	–	21	–	13	–	20	MIC [6]: 8 µg/mL (≈ 24 µM); MIC [9]: 8 µg/mL (≈ 24 µM); MIC [36]: 64 µg/mL (≈ 192 µM); MIC [10]: 8 µg/mL (≈ 24 µM); MIC [12]: 16 µg/mL (≈ 48 µM); MIC [14]: > 128 µg/mL; MIC [15]: 64 µg/mL (≈ 192 µM); MIC [16]: 4 µg/mL (≈ 12 µM); MIC [17]: 64 µg/mL (≈ 192 µM); MIC [25]: 32 µg/mL (≈ 96 µM); MIC [26]: 16 µg/mL (≈ 48 µM); MIC [29]: 64 µg/mL (≈ 192 µM); MIC [30]: 8 µg/mL (≈ 24 µM); MIC [31]: 128 µg/mL (≈ 384 µM)
C[C@H]1COc2c(N3CCN(C)CC3)c(F)cc3c(=O)c(C(=O)O)cn1c23.C[C@H]1COc2c(N3CCN(C)CC3)c(F)cc3c(=O)c(C(=O)O)cn1c23.O [LEVOFLOXACIN]	26	–	–	–	22	6	23	> 32	19	21	21	22	6	21	6	24	6	22	15	22	diameter of the inhibition zone (DIZ) [35]: 19 mm; diameter of the inhibition zone (DIZ) [37]: 6 mm; diameter of the inhibition zone (DIZ) [34]: 12 mm

Source: ChEMBL document CHEMBL1629559, “Real-time PCR detection of gyrA and parC mutations in Streptococcus pneumoniae” (2008)
